Test results taken from patent US10973784B2, “Compositions and methods for treating Alzheimer's disease and Parkinson's disease” (Biotie Therapies, Inc., priority 2016, dated 2021).
Values joined by “and” are separate entries in the source; they are usually repeats but may differ in a detail not shown here. Equal entries are not always repeated. Where two headings read alike, the source gives them in different places.

Assay: Pharmacokinetic analysis of SYN120 tablets, single oral dose (Example 8)
Assay type: in vivo, human
Settings: for half-life / Tmax / AUC(0-t) / AUC(0-inf) / Cmax: human, plasma
Experimental: Pharmacokinetic (PK) analysis was performed on 42 subjects (36 males; 6 females) who received SYN120 oral tablets. In this study, subjects received a single oral dose of SYN120 at one of the following doses: 2 mg; 10 mg; 30 mg; 100 mg; 300 mg; and 600 mg. The SYN120 oral tablets used in this study were formulated for immediate release at tablet strengths of 2 mg, 10 mg, and 50 mg. The tablets were formulated using lactose monohydrate, corn starch, sodium starch glycolate, povidone, sodium lauryl sulfate, magnesium stearate, and the coating agent Opadry Yellow. Blood samples were collected at predose and 0.5, 1, 1.5, 2, 3, 4, 6, 8, 12, 16, 24, 32, 36, 48, and 72 hours postdose. During the treatments at 100 mg and higher, the protocol was amended to include an additional blood sample on Study Day 7 (nominal time of 151 hours). Following oral administration, SYN120 absorption was rapid and plasma levels were measurable in all subjects at the first time point (0.5 hours).
Table 14 below provides a summary of the mean PK parameters of plasma SYN120 for all doses.

[1] = female, oral, 100 mg single dose, females, arithmetic mean
[2] = female, single oral dose 100 mg (females), Cohort E, geometric mean
[3] = single oral dose 2 mg, Cohort A, geometric mean
[4] = single oral dose 10 mg, Cohort B, geometric mean
[5] = single oral dose 30 mg, Cohort C, geometric mean
[6] = single oral dose 300 mg, Cohort F, geometric mean
[7] = single oral dose 600 mg, Cohort G, geometric mean
[8] = male, oral, 100 mg single dose, males, arithmetic mean
[9] = male, single oral dose 100 mg (males), Cohort D, geometric mean
[10] = single oral dose 2 mg, Cohort A, arithmetic mean ±SD
[11] = single oral dose 10 mg, Cohort B, arithmetic mean ±SD
[12] = single oral dose 30 mg, Cohort C, arithmetic mean ±SD

Question: Which results are given for `NC(=O)NC[C@@H]1CCCc2cc(S(=O)(=O)c3cccc(F)c3)ccc21` [SYN120]?
Answer: half-life (both sexes, oral, range across single-dose treatment groups, read-out: mean apparent elimination half-life): 8.45 to 12.4 h; Tmax (both sexes, oral, single doses of 100 mg and above, read-out: Tmax estimates): ~4 h; AUC(0-t) (female, oral, 100 mg, 100 mg single dose, females, arithmetic mean, read-out: AUC0-24): 4670 ± 2990 ng·h/mL; AUC(0-t) (female, oral, 100 mg, 100 mg single dose, females, arithmetic mean, read-out: AUC0-t): 5960 ± 3650 ng·h/mL; AUC(0-inf) [1]: 5980 ± 3660 ng·h/mL; Cmax [1]: 532 ± 218 ng/mL; AUC(0-t) (female, po, 100 mg, single oral dose 100 mg (females), Cohort E, geometric mean, read-out: AUC0-24): 4000 ng·h/mL; AUC(0-t) (female, po, 100 mg, single oral dose 100 mg (females), Cohort E, geometric mean, read-out: AUC0-t): 5100 ng·h/mL; half-life (female, single oral dose 100 mg (females), Cohort E, arithmetic mean ±SD, read-out: t1/2 (converted)): 12.4 h; AUC(0-inf) [2]: 5120 ng·h/mL; Cmax [2]: 498 ng/mL; Tmax (female, single oral dose 100 mg (females), Cohort E, median, read-out: Tmax): 2.51 h; half-life (oral, general statement, read-out: elimination half-life (t1/2)): 8 to 12 h; Tmax (oral, single dose 2 to 30 mg, on average, read-out: Tmax): ~2 h; AUC(0-t) (po, 2 mg, single oral dose 2 mg, Cohort A, geometric mean, read-out: AUC0-24): 118 ng·h/mL; AUC(0-t) (po, 2 mg, single oral dose 2 mg, Cohort A, geometric mean, read-out: AUC0-t): 139 ng·h/mL; AUC(0-t) (po, 10 mg, single oral dose 10 mg, Cohort B, geometric mean, read-out: AUC0-24): 351 ng·h/mL; AUC(0-t) (po, 10 mg, single oral dose 10 mg, Cohort B, geometric mean, read-out: AUC0-t): 384 ng·h/mL; AUC(0-t) (po, 30 mg, single oral dose 30 mg, Cohort C, geometric mean, read-out: AUC0-24): 1540 ng·h/mL; AUC(0-t) (po, 30 mg, single oral dose 30 mg, Cohort C, geometric mean, read-out: AUC0-t): 1750 ng·h/mL; AUC(0-t) (po, 300 mg, single oral dose 300 mg, Cohort F, geometric mean, read-out: AUC0-24): 21300 ng·h/mL; AUC(0-t) (po, 300 mg, single oral dose 300 mg, Cohort F, geometric mean, read-out: AUC0-t): 27400 ng·h/mL; AUC(0-t) (po, 600 mg, single oral dose 600 mg, Cohort G, geometric mean, read-out: AUC0-24): 27600 ng·h/mL; AUC(0-t) (po, 600 mg, single oral dose 600 mg, Cohort G, geometric mean, read-out: AUC0-t): 42500 ng·h/mL; half-life (single oral dose 2 mg, Cohort A, arithmetic mean ±SD, read-out: t1/2 (converted)): 11.4 ± 5.11 h; AUC(0-inf) [3]: 146 ng·h/mL; Cmax [3]: 11.8 ng/mL; Tmax (single oral dose 2 mg, Cohort A, median, read-out: Tmax): 2.02 h; half-life (single oral dose 10 mg, Cohort B, arithmetic mean ±SD, read-out: t1/2 (converted)): 8.45 ± 2.31 h; AUC(0-inf) [4]: 389 ng·h/mL; Cmax [4]: 48.7 ng/mL; Tmax (single oral dose 10 mg, Cohort B, median, read-out: Tmax): 1.76 h; half-life (single oral dose 30 mg, Cohort C, arithmetic mean ±SD, read-out: t1/2 (converted)): 8.92 ± 1.39 h; AUC(0-inf) [5]: 1770 ng·h/mL; Cmax [5]: 179 ng/mL; Tmax (single oral dose 30 mg, Cohort C, median, read-out: Tmax): 2.26 h; half-life (single oral dose 300 mg, Cohort F, arithmetic mean ±SD, read-out: t1/2 (converted)): 9.58 ± 3.46 h; AUC(0-inf) [6]: 27400 ng·h/mL; Cmax [6]: 1730 ng/mL; Tmax (single oral dose 300 mg, Cohort F, median, read-out: Tmax): 3.53 h; half-life (single oral dose 600 mg, Cohort G, arithmetic mean ±SD, read-out: t1/2 (converted)): 12 ± 4.81 h; AUC(0-inf) [7]: 42900 ng·h/mL; Cmax [7]: 2080 ng/mL; Tmax (single oral dose 600 mg, Cohort G, median, read-out: Tmax): 4.51 h; AUC(0-t) (male, oral, 100 mg, 100 mg single dose, males, arithmetic mean, read-out: AUC0-24): 6470 ± 3330 ng·h/mL; AUC(0-t) (male, oral, 100 mg, 100 mg single dose, males, arithmetic mean, read-out: AUC0-t): 7980 ± 4800 ng·h/mL; AUC(0-inf) [8]: 8060 ± 4880 ng·h/mL; Cmax [8]: 623 ± 180 ng/mL; AUC(0-t) (male, po, 100 mg, single oral dose 100 mg (males), Cohort D, geometric mean, read-out: AUC0-24): 5870 ng·h/mL; AUC(0-t) (male, po, 100 mg, single oral dose 100 mg (males), Cohort D, geometric mean, read-out: AUC0-t): 7010 ng·h/mL; half-life (male, single oral dose 100 mg (males), Cohort D, arithmetic mean ±SD, read-out: t1/2 (converted)): 11 h; AUC(0-inf) [9]: 7060 ng·h/mL; Cmax [9]: 604 ng/mL; Tmax (male, single oral dose 100 mg (males), Cohort D, median, read-out: Tmax): 4 h; CL/F [10]: 18.8 ± 15.2 L/h; Vs/F [10]: 264 ± 191 L; CL/F [11]: 29.0 ± 15.0 L/h; Vs/F [11]: 379 ± 283 L; CL/F [12]: 19.2 ± 9.58 L/h; Vs/F [12]: 253 ± 149 L; CL/F (single oral dose 100 mg (females), Cohort E, arithmetic mean ±SD): 22.5 L/h and 22.5 ± 11.9 L/h
